The target in assay [1] is T1, FKBP51 variant N63A (Homo sapiens, UniProt Q13451, N63A).
T1 construct: made in house; host or cells: E. coli BL21 (DE3)
T1 sequence (Q13451 1-140 N63A): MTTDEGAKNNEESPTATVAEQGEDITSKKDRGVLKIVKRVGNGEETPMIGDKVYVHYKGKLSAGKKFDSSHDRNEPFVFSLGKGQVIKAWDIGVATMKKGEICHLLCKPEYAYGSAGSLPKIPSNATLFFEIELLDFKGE
Description: Fluorescence polarization tracer binding, FKBP51 N63A. The following applies: for Fold change in Kd improvement: FKBP51 N63A compared to WT; for Kd: FKBP51 N63A, 0.5 nM SAFit-FL, 5 nM Mcyc-TA or 1 nM FK [431]-TA, 30 min room temperature. The text has this: (§1) All ligands and tracers used for fluorescence polarization assays had purities of more than 95%. The following ligands and tracers were used for fluorescence polarization and FACS screening experiments: •SAFit-FL tracer (1): Fluorescein conjugated analog of the iFit ligand class. •Mcyc-TA tracer (2): TAMRA conjugated macrocyclic ligand (5). •FK [431]-TA tracer (3): TAMRA conjugated FK [431] ligand (6). •SAFit1 ligand (4): analog of the iFit ligand class. •macrocyclic ligand (5):macrocyclic analog of the SAFit class ligands. •FK [431] ligand (6):bicyclic analog of the immunosuppressive drug FK506
(§2) The binding of the generated FKBP51 variants to different conformation-sensitive FKBP ligands was investigated by fluorescence polarization assays. Therefore, a serial dilution of the respective FKBP51 variant in assay buffer (20 mM HEPES pH 8.0, 150 mM NaCl, 0.015% Triton X-100) was placed in a 384-well assay plate and a defined amount of the respective fluorescent tracer (0.5 nM of the SAFit based tracer SAFit-FL (1), 5 nM of the macrocyclic tracer Mcyc-TA 2) or 1 nM of the FK [431]-TA 3) in assay buffer was added to the protein buffer mixture. After incubation for 30 min at room temperature, the fluorescence polarization was measured with a plate reader. The obtained results for each 3 independent experiments were normalized with respect to the maximal binding signal and fitted to a one-site binding model as described by [Wang et al., 1992] yielding the respective binding constants. tracer bound=100/Lt×0.5×(Rt+Lt+KD−(Rt+Lt+KD)^2−4×LtRt) With L t , total concentration of the tracer, R t , total concentration of the receptor and K D binding constant of the complex RL.
(Fluorescence polarisation rises when a labelled molecule tumbles more slowly, as on binding a larger partner.)

In assay [2] the target is T2, FKBP51 variant N63G (Homo sapiens, UniProt Q13451, N63G).
T2 construct: made in house; host or cells: E. coli BL21 (DE3)
T2 sequence (Q13451 1-140 N63G): T1 sequence (Q13451 1-140 N63A) with A63G
As to the kind of experiment: Fluorescence polarization tracer binding, FKBP51 N63G. The following applies: for Fold change in Kd improvement: FKBP51 N63G compared to WT; for Kd: FKBP51 N63G, 0.5 nM SAFit-FL, 5 nM Mcyc-TA or 1 nM FK [431]-TA, 30 min room temperature.
Text: as §1, §2

Assay [3] addresses T3, FKBP51 variant G64A (Homo sapiens, UniProt Q13451, G64A).
T3 construct: made in house; host or cells: E. coli BL21 (DE3)
T3 sequence (Q13451 1-140 G64A): T1 sequence (Q13451 1-140 N63A) with A63N, G64A
Description: Fluorescence polarization tracer binding, FKBP51 G64A. Particulars: for Fold change in Kd improvement: FKBP51 G64A compared to WT; for Kd: FKBP51 G64A, 0.5 nM SAFit-FL, 5 nM Mcyc-TA or 1 nM FK [431]-TA, 30 min room temperature.
Text: as §1, §2

Assay [4] concerns the target T4, FKBP51 variant G64S (Homo sapiens, UniProt Q13451, G64S).
T4 construct: made in house; host or cells: E. coli BL21 (DE3)
T4 sequence (Q13451 1-140 G64S): T1 sequence (Q13451 1-140 N63A) with A63N, G64S
Description: Fluorescence polarization tracer binding, FKBP51 G64S. The following applies: for Kd: FKBP51 G64S, 0.5 nM SAFit-FL, 5 nM Mcyc-TA or 1 nM FK [431]-TA, 30 min room temperature.
Text: as §1, §2

The target of assay [5] is T5, FKBP51 variant G64K (Homo sapiens, UniProt Q13451, G64K).
T5 construct: made in house; host or cells: E. coli BL21 (DE3)
T5 sequence (Q13451 1-140 G64K): T1 sequence (Q13451 1-140 N63A) with A63N, G64K
Description: Fluorescence polarization tracer binding, FKBP51 G64K. Particulars: for Fold change in Kd improvement: FKBP51 G64K compared to WT; for Kd: FKBP51 G64K, 0.5 nM SAFit-FL, 5 nM Mcyc-TA or 1 nM FK [431]-TA, 30 min room temperature.
Text: as §1, §2

The target in assay [6] is T6, FKBP51 variant G64T (Homo sapiens, UniProt Q13451, G64T).
T6 construct: made in house; host or cells: E. coli BL21 (DE3)
T6 sequence (Q13451 1-140 G64T): T1 sequence (Q13451 1-140 N63A) with A63N, G64T
Description: Fluorescence polarization tracer binding, FKBP51 G64T. The following applies: for Fold change in Kd improvement: FKBP51 G64T compared to WT; for Kd: FKBP51 G64T, 0.5 nM SAFit-FL, 5 nM Mcyc-TA or 1 nM FK [431]-TA, 30 min room temperature.
Text: as §1, §2

Assay [7] concerns the target T7, FKBP51 variant D68N (Homo sapiens, UniProt Q13451, D68N).
T7 construct: made in house; host or cells: E. coli BL21 (DE3)
T7 sequence (Q13451 1-140 D68N): T1 sequence (Q13451 1-140 N63A) with A63N, D68N
As to the kind of experiment: Fluorescence polarization tracer binding, FKBP51 D68N. Particulars: for Fold change in Kd improvement: FKBP51 D68N compared to WT; for Kd: FKBP51 D68N, 0.5 nM SAFit-FL, 5 nM Mcyc-TA or 1 nM FK [431]-TA, 30 min room temperature.
Text: as §1, §2

The target of assay [8] is T8, FKBP51 variant S69Y (Homo sapiens, UniProt Q13451, S69Y).
T8 construct: made in house; host or cells: E. coli BL21 (DE3)
T8 sequence (Q13451 1-140 S69Y): T1 sequence (Q13451 1-140 N63A) with A63N, S69Y
As to the kind of experiment: Fluorescence polarization tracer binding, FKBP51 S69Y. The following applies: for Fold change in Kd improvement: FKBP51 S69Y compared to WT; for Kd: FKBP51 S69Y, 0.5 nM SAFit-FL, 5 nM Mcyc-TA or 1 nM FK [431]-TA, 30 min room temperature.
Text: as §1, §2

Molecules are shown by their SMILES. Changes are numbered by the printed parent chain. Values joined by “and” are separate entries in the source; they are usually repeats but may differ in a detail not shown here. Identical values can stand only once.

Consider `CN(C)c1ccc2c(-c3cc(C(=O)NCCn4cc([C@H]5CN(Cc6ccccn6)C(=O)[C@@H]6CCC[C@H]5N6S(=O)(=O)c5cc(Cl)cc(Cl)c5)nn4)ccc3C(=O)O)c3ccc(=[N+](C)C)cc-3oc2c1` [FK [431]-TA], for which the “Fold change in Kd improvement” value came out at 0.850 fold in assay [1]; 0.850 fold in assay [2]; 0.084 fold in assay [3]; 0.283 fold in assay [5]; 0.084 fold in assay [6]; 0.035 fold in assay [7]. In addition, the “Fold change in Kd improvement” value in assay [8] stood at 0.077 fold. For the same molecule, the Kd (in general, the free concentration of one partner at which half of the binding sites on the other are occupied at equilibrium, for simple one-to-one binding) in assay [1] was 6 ± 0.2 nM; in assay [2], 6 ± 0.2 nM; in assay [3], 61 ± 2 nM; in assay [4] it was 11 ± 1 nM; in assay [5], 18 ± 1 nM; in assay [6], 61 ± 2 nM. Moreover, the Kd was found to be 146 ± 6 nM in assay [7] and 66 ± 2 nM in assay [8].
Take `COc1ccc(CC[C@H]2OC(=O)[C@@H]3CCCCN3C(=O)[C@@H](C3CCCCC3)NC(=O)C(C)(C)NC(=O)COc3cc(OCCNC(=O)c4ccc(C(=O)O)c(-c5c6ccc(=[N+](C)C)cc-6oc6cc(N(C)C)ccc56)c4)cc2c3)cc1OC` [Mcyc-TA]: the “Fold change in Kd improvement” value in assay [1] was 5.58 fold; in assay [2] it was 3.16 fold; in assay [3], 5.71 fold; in assay [4] (FKBP51 G64S compared to WT), 34 fold and 34.29 fold; in assay [5], 6.86 fold; in assay [6], 1.41 fold. The “Fold change in Kd improvement” value in assay [7] came out at 4.00 fold; in assay [8] it was 1.41 fold. The Kd in assay [1] turned out to be 4.3 ± 0.5 nM; in assay [2] it was 7.6 ± 0.9 nM; in assay [3] it was 4.2 ± 0.5 nM; in assay [4], 0.7 ± 0.2 nM; in assay [5], 3.5 ± 0.5 nM; in assay [6] it was 17 ± 1 nM. Moreover, the Kd amounted to 6 ± 1 nM in assay [7] and 17 ± 1 nM in assay [8].

Values taken from article PMC9676650, “Binding pocket stabilization by high-throughput screening of yeast display libraries” (Frontiers in Molecular Biosciences, 2022).
